Assay results: paper PMC11555717 (Cancer Medicine, 2024)
Entries after “also recorded” stand apart in the source; their conditions may differ. Marks after values point to notes of the source that are not given here.

Experiments:
[1] = system: Chinese patients with previously treated locally advanced or metastatic urothelial carcinoma; assay: EV-203 phase 2: antitumor activity per RECIST v1.1 (IRC and investigator), PFS, OS; assay type: in vivo, human; details: for Confirmed disease control rate (95% CI): CR, PR or stable disease; for Duration of response, median (95% CI): NE = not evaluable; for Confirmed best overall response: Stable disease: minimum duration 49 days; for Confirmed objective response rate (95% CI): RECIST v1.1, 1.25 mg/kg
Description: This was a single‐arm, open‐label phase 2 study that enrolled patients from six centers in China. Up to 40 patients were planned for enrollment. Two of the study centers were designated as PK cohort sites and planned to enroll 12 or more patients who agreed to intensive PK sampling for PK analysis in addition to safety and efficacy assessments.
The study enrolled Chinese adults (age ≥ 18 years or considered an adult per local regulations) with histologically or cytologically confirmed UC/transitional cell carcinoma of the bladder, renal pelvis, ureter, or urethra not amenable to curative intent treatment. Patients with other histologies, including adenocarcinoma, squamous differentiation, or mixed, were also eligible. Patients must have received prior treatment with platinum‐based chemotherapy and PD‐1/L1 inhibitor therapy in the locally advanced or metastatic setting or in the neoadjuvant or adjuvant setting with recurrence or progressive disease during therapy or within 12 months (platinum‐based chemotherapy) or 3 months (PD‐1/L1 inhibitor) of completion of treatment; had baseline measurable disease according to Response Evaluation Criteria in Solid Tumors (RECIST) version 1.1; and an Eastern Cooperative Oncology Group performance status (ECOG PS) of 0–1. Key exclusion criteria were preexisting grade 2 or higher sensory/motor neuropathy; active central nervous system metastases; clinically significant toxicity associated with prior treatment; ongoing grade 3 or higher immunotherapy‐related hypothyroidism or panhypopituitarism, ongoing immunotherapy‐related colitis, uveitis, myocarditis, or pneumonitis; other immunotherapy‐related adverse events (AEs) requiring high‐dose steroids (prednisone > 20 mg/day or equivalent); or history of uncontrolled diabetes mellitus (glycated hemoglobin ≥ 8% or between 7% and < 8% with diabetes‐related symptoms not otherwise explained) within 3 months prior to the first study dose.
Study treatment continued until one or more of the following occurred: patient or investigator decision; documented radiologic disease progression per RECIST version 1.1 by investigator assessment; start of new anticancer therapy; unacceptable toxicity; pregnancy; protocol noncompliance; or more than six consecutive doses of study treatment missed by the patient. Prespecified dose modifications were permitted depending on AE type and severity.
Antitumor activity was assessed every 8 weeks (±1 week) via computed tomography with contrast. After 1 year of study, imaging frequency was reduced to every 12 weeks (±1 week). Complete response (CR) and partial response (PR; per RECIST version 1.1) were confirmed by repeat scans conducted at least 4 weeks after the initial response. Responses were assessed by investigators and an independent review committee (IRC). Tumor assessments were continued until the study end or the first occurrence of radiologic disease progression per RECIST version 1.1, as determined by investigator assessment, the patient initiated new anticancer therapy, or the patient died, withdrew study consent, or was lost to follow‐up.
The primary efficacy endpoint was confirmed ORR as assessed by IRC. The ORR was defined as the proportion of patients with CR or PR according to RECIST version 1.1. […] Other primary endpoints included selected PK parameters of ADC, TAb, and free MMAE.
Secondary endpoints were confirmed ORR by investigator assessment; DOR, disease control rate (DCR), and progression‐free survival (PFS) by IRC and investigator assessments; OS; incidence of ATAs to ADC; and safety/tolerability. PFS was defined as the time from the start of the study treatment to the first documentation of objective tumor progression (i.e., progressive disease per RECIST version 1.1) by IRC or investigator assessment (whichever was specified) or to death due to any cause, whichever came first. OS was defined as the time from the start of study treatment to the date of death due to any cause. […]

[2] = EV-203 pharmacokinetics of ADC, TAb and free MMAE in serum or plasma; assay type: in vivo, human; details: for Serum concentration at end of infusion / AUC0–7d / C max: mean (SD); for AUC0–7d: 1.25 mg/kg IV
Description: In the PK cohort (i.e., PK analysis set), intensive PK sampling was performed wherein blood samples for analysis of ADC, total antibody (TAb), and free (unconjugated) MMAE were collected at prespecified time points. […] Blood samples for antitherapeutic antibodies (ATAs) were collected predose on Day 1 of cycles 1 to 4, 6, 8, 10, and within 30–37 days after the last study dose. Validated assays were used to measure concentrations of ADC, TAb, and free MMAE in serum or plasma and to assess ATA levels.
All patients who received any amount of study drug were included in the primary analyses of efficacy endpoints and safety analyses. The PK analyses included data from patients in the PK cohort who received at least 3 of 4 doses of the study drug through cycle 2 Day 1 and had at least five blood samples collected and assayed for measurements of ADC, TAb, or free MMAE concentrations to determine at least one PK parameter.

[3] = serum, Cycle 1 Day 1, PK cohort
[4] = serum, Cycle 1 Day 15, PK cohort

Substance: enfortumab vedotin: fully human monoclonal ADC directed to Nectin-4, delivering intracellular monomethyl auristatin E (MMAE) to tumor cells
- Median time to response ([1]; IRC assessment): 1.8 (range, 1.7–3.8) months
- Median PFS ([1]; IRC assessment, N = 40): 4.7 months
- Best overall response PR, patients ([1]; IRC, 14 patients): 35.0%
- Patients with reductions of 30% or more from baseline in target lesions ([1]; IRC, 24 of 37 patients): 64.9%
- Patients with reduction in sum of diameters of target lesions from baseline ([1]; IRC, 33 of 37 patients with baseline and postbaseline assessments): 89.2%
- Confirmed disease control rate (95% CI) ([1]; IRC, N = 40): 72.5 (56.1–85.4) %
- Rate of duration of response (95% CI) at 6 months ([1]; IRC, Kaplan–Meier): 59.7 (22.2–83.8) %
- Duration of response, median (95% CI) ([1]; IRC, Kaplan–Meier): not reached; also recorded: NE (2.04–NE)
- Confirmed best overall response: CR ([1]; IRC, N = 40): 1 (2.5) n (%)
- Confirmed best overall response: NE (not evaluable) ([1]; IRC, N = 40): 4 (10.0) n (%)
- Confirmed best overall response: PR ([1]; IRC, N = 40): 14 (35.0) n (%)
- Confirmed best overall response: Progressive disease ([1]; IRC, N = 40): 7 (17.5) n (%)
- Confirmed best overall response: Stable disease ([1]; IRC, N = 40): 14 (35.0) n (%)
- Confirmed objective response rate (95% CI) ([1]; IRC, N = 40): 37.5 (22.7–54.2) ^b %
- ORR, subgroup patients with liver metastases ([1]; IRC, n/N = 5/11): 45.5%
- ORR, subgroup three or more lines of systemic therapy ([1]; IRC, n/N = 6/18): 33.3%
- ORR, subgroup baseline ECOG PS of 0 ([1]; IRC, n/N = 7/10): 70.0%
- ORR, subgroup primary tumor site bladder or other ([1]; IRC, n/N = 7/11): 63.6%
- ORR, subgroup primary tumor site upper tract ([1]; IRC, n/N = 8/29): 27.6%
- ORR, subgroup baseline ECOG PS of 1 ([1]; IRC, n/N = 8/30): 26.7%
- Best overall response CR, patients ([1]; IRC, one patient): 2.5%
- Confirmed disease control rate (95% CI) ([1]; Investigator, N = 40): 82.5 (67.2–92.7) %
- Rate of duration of response (95% CI) at 6 months ([1]; Investigator, Kaplan–Meier): 61.1 (26.2–83.4) %
- Duration of response, median (95% CI) ([1]; Investigator, Kaplan–Meier): not reached; also recorded: NE (2.04–NE)
- Confirmed best overall response: CR ([1]; Investigator, N = 40): 0 n (%)
- Confirmed best overall response: NE (not evaluable) ([1]; Investigator, N = 40): 3 (7.5) n (%)
- Confirmed best overall response: PR ([1]; Investigator, N = 40): 17 (42.5) n (%)
- Confirmed best overall response: Progressive disease ([1]; Investigator, N = 40): 4 (10.0) n (%)
- Confirmed best overall response: Stable disease ([1]; Investigator, N = 40): 16 (40.0) n (%)
- Confirmed objective response rate (95% CI) ([1]; Investigator, N = 40): 42.5 (27.0–59.1) %
- Overall survival at 6 months (95% CI) ([1]; Kaplan–Meier, N = 40): 78.0 (60.1–88.6) %
- Median PFS ([1]; investigator assessment, N = 40): 4.2 months
- Median OS ([1]; median follow-up 6.5 months): not reached (lower bound of 95% CI: 6.74)
- Serum concentration at end of infusion ([2]; cycle 1 Day 1, Non-PK cohort): 25,300 (3830) [23] ng/mL
- Serum concentration at end of infusion ([2]; cycle 1 Day 1, PK cohort): 27,700 (4410) [13] ng/mL
- Serum concentration at end of infusion ([2]; cycle 1 Day 8, Non-PK cohort): 24,900 (5400) [17] ng/mL
- Serum concentration at end of infusion ([2]; cycle 1 Day 8, PK cohort): 27,400 (4390) [12] ng/mL
- Serum concentration at end of infusion ([2]; cycle 1 Day 15, Non-PK cohort): 22,000 (5980) [11] ng/mL
- Serum concentration at end of infusion ([2]; cycle 1 Day 15, PK cohort): 27,500 (3820) [10] ng/mL
- AUC0–7d [2, 3]: 32.4 (6.2) day μg/mL
- C max [2, 3]: 28.1 (4.52) μg/mL
- AUC0–7d [2, 4]: 36.5 (7.9) day μg/mL
- C max [2, 4]: 27.6 (4.01) μg/mL
- Time of peak serum concentration ([2]; serum, PK cohort cycle 1): at the end of the enfortumab vedotin infusion
